Assay results reported in patent publication US6555341B1, “Human theta subunit of the GABAa receptor” (Merck Sharp & Dohme Ltd., priority 1997, dated 2003).

Experiments:
[1] = target: T1, GABAA receptor subunit combination α2β1θγ1 (Homo sapiens, UniProt P18505+P47869+Q9UN88); test: Whole cell patch-clamp of HEK 293 cells transiently transfected with human GABA-A receptors, GABA concentration-response; format: cell-based; settings: HEK 293 cells transiently expressing α2β1θγ1; GABA concentration-response curve
T1 construct: expressed in transfected cells; host or cells: HEK 293 cells, transient, calcium phosphate precipitation
Experimental: (§1) Experiments were performed on HEK 293 cells transiently transfected with human cDNA combinations α2β1 γ1, and α2β1θγ1 (4 μgs of cDNA total per cover-slip) using calcium phosphate precipitation (Chen and Okayama, 1988) as previously described (Hadingham et al, 1993). Glass cover-slips containing the cells in a monolayer culture were transferred to a perspex chamber on the stage of Nikon Diaphot inverted microscope. Cells were continuously perfused with a solution containing 124 mM NaCl, 2 mM KCl, 2 mM CaCl2, 1 mM MgCl2, 1.25 mM KH2PO4, 25 mM NaHCO3, 11 mM D-glucose, at pH 7.2, and observed using phase-contrast optics. Patch-pipettes were pulled with an approximate tip diameter of 2 μm and a resistance of 4MΩ with borosilicate glass and filled with 130 mM CsCl, 10 mM HEPES, 10 mM EGTA, 3 mM Mg^+-ATP, pH adjusted to 7.3 with CsOH. Cells were patch-clamped in whole-cell mode using an Axopatch 200B patch-clamp amplifier. Drug solutions were applied by a double-barrelled pipette assembly, controlled by a stepping motor attached to a Prior manipulator, enabling rapid equilibration around the cell. […] Curves were fitted using a non-linear square-fitting program to the equation f(x)=BMAX/[1+(EC50/x)^n] where x is the drug concentration, EC50 is the concentration of drug eliciting a half-maximal response and n is the Hill coefficient. EC50's were analysed by unpaired students t-test.

[2] = target: T2, GABAA receptor subunit combination α2β1γ1 (Homo sapiens, UniProt P18505+P47869); test: as above; format: cell-based; settings: HEK 293 cells transiently expressing α2β1γ1; GABA concentration-response curve
T2 construct: expressed in transfected cells; host or cells: HEK 293 cells, transient, calcium phosphate precipitation
T2 sequence (P47869 29-451): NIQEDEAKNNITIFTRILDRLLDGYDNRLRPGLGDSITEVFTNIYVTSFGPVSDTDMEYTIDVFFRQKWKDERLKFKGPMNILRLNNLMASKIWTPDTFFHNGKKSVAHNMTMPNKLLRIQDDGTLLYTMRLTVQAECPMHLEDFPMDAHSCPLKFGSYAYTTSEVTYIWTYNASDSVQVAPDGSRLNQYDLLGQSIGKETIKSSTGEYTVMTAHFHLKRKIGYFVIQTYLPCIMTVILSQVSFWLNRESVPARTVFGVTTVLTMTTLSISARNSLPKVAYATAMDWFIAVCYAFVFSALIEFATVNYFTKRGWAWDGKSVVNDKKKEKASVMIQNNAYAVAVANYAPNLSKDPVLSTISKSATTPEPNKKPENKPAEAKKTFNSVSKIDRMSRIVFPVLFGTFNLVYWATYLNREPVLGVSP
T2 sequence (P18505 26-474): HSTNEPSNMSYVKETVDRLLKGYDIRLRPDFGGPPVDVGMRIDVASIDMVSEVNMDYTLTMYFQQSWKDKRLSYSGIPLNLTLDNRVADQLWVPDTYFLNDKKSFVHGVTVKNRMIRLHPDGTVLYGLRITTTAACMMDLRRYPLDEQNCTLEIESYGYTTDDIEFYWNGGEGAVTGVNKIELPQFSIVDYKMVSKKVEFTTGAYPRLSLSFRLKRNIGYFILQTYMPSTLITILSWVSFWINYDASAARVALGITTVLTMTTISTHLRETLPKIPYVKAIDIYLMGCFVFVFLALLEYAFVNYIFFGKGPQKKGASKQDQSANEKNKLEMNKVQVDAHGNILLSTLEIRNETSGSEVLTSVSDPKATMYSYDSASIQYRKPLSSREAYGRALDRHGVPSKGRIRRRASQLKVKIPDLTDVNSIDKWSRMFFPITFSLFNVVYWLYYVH
T2 sequence (Q8N1C3 36-465 partner): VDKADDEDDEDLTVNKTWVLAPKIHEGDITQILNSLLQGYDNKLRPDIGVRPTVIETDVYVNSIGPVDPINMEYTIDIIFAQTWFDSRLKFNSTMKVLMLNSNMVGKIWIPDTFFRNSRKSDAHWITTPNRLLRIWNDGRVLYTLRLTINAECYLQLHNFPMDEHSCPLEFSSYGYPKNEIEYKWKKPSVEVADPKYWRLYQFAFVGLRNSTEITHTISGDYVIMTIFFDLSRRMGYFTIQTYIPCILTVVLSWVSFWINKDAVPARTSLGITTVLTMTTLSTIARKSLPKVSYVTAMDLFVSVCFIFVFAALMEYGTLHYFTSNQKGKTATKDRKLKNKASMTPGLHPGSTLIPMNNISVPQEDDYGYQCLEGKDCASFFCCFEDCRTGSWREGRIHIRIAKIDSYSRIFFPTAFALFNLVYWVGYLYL
Experimental: as §1

T1 sequence (Q9UN88 22-632, one chain of several): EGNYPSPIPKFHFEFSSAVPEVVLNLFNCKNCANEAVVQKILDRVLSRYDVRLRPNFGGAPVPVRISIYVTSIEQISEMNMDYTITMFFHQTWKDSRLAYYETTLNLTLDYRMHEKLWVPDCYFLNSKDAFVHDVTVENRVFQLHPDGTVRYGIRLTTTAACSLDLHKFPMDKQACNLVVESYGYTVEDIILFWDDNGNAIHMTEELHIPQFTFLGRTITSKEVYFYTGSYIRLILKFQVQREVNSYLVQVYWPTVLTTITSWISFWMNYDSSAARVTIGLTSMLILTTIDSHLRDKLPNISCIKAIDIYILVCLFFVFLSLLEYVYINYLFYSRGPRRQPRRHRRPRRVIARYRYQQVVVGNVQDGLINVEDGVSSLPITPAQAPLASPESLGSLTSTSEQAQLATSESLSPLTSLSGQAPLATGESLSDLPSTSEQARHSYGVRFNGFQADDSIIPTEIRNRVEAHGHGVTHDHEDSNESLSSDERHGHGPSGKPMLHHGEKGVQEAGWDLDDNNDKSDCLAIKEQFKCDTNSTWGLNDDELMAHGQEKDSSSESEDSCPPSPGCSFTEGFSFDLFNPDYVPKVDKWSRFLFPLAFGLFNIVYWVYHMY

With `NCCCC(=O)O` [GABA, Gamma-amino butyric acid] the “Slope (Hill coefficient)” value [1] was 1.5 ± 0.1 and the “Slope (Hill coefficient)” value [2] was 1.6 ± 0.2.
